Laboratory results reported in the NIST ThermoML archive (doi:10.1021/acs.jced.8b00132).
Values joined by “and” are separate entries in the source; they are usually repeats but may differ in a detail not shown here. Equal entries are not always repeated.

O=C(C(F)(F)C(F)(F)F)C(F)(C(F)(F)F)C(F)(F)F [dodecafluoro-2-methylpentan-3-one]
Conditions	thermal conductivity
402.37 K, 306 kPa, Gas, hot wire	0.0201 W/m/K
402.38 K, 27 kPa, Gas, hot wire	0.01858 W/m/K
402.38 K, 306 kPa, Gas, hot wire	0.02016 W/m/K
402.44 K, 159 kPa, Gas, hot wire	0.01917 W/m/K and 0.01915 W/m/K
402.45 K, 445 kPa, Gas, hot wire	0.02064 W/m/K
402.47 K, 444 kPa, Gas, hot wire	0.02039 W/m/K
402.49 K, 306 kPa, Gas, hot wire	0.02022 W/m/K and 0.02027 W/m/K
402.5 K, 27 kPa, Gas, hot wire	0.01866 W/m/K and 0.01864 W/m/K
402.57 K, 160 kPa, Gas, hot wire	0.01916 W/m/K
402.57 K, 161 kPa, Gas, hot wire	0.0192 W/m/K
402.57 K, 444 kPa, Gas, hot wire	0.02075 W/m/K
402.59 K, 443 kPa, Gas, hot wire	0.02053 W/m/K
402.62 K, 305 kPa, Gas, hot wire	0.02031 W/m/K and 0.02029 W/m/K
402.63 K, 27 kPa, Gas, hot wire	0.01867 W/m/K
402.64 K, 27 kPa, Gas, hot wire	0.01862 W/m/K
402.68 K, 835 kPa, Gas, transient hot wire	0.02013 W/m/K
402.69 K, 441 kPa, Gas, hot wire	0.02089 W/m/K
402.69 K, 442 kPa, Gas, hot wire	0.02089 W/m/K
402.69 K, 835 kPa, Gas, transient hot wire	0.02007 W/m/K
402.71 K, 162 kPa, Gas, hot wire	0.01917 W/m/K
402.71 K, 163 kPa, Gas, hot wire	0.01926 W/m/K
402.74 K, 305 kPa, Gas, hot wire	0.02049 W/m/K
402.74 K, 747 kPa, Gas, transient hot wire	0.01986 W/m/K
402.74 K, 748 kPa, Gas, transient hot wire	0.01986 W/m/K
402.75 K, 305 kPa, Gas, hot wire	0.02035 W/m/K
402.78 K, 27 kPa, Gas, hot wire	0.01867 W/m/K and 0.01858 W/m/K
402.81 K, 608 kPa, Gas, transient hot wire	0.01959 W/m/K
402.81 K, 609 kPa, Gas, transient hot wire	0.01955 W/m/K
402.85 K, 164 kPa, Gas, hot wire	0.01925 W/m/K and 0.01927 W/m/K
402.87 K, 447 kPa, Gas, transient hot wire	0.01955 W/m/K
402.87 K, 448 kPa, Gas, transient hot wire	0.01962 W/m/K
402.87 K, 836 kPa, Gas, transient hot wire	0.02025 W/m/K
402.88 K, 836 kPa, Gas, transient hot wire	0.0203 W/m/K
402.91 K, 746 kPa, Gas, transient hot wire	0.01994 W/m/K
402.92 K, 307 kPa, Gas, transient hot wire	0.01967 W/m/K
402.92 K, 746 kPa, Gas, transient hot wire	0.01998 W/m/K
402.93 K, 27 kPa, Gas, hot wire	0.01857 W/m/K and 0.01866 W/m/K
403 K, 607 kPa, Gas, transient hot wire	0.01962 W/m/K and 0.01975 W/m/K
403.05 K, 836 kPa, Gas, transient hot wire	0.02051 W/m/K
403.06 K, 836 kPa, Gas, transient hot wire	0.02049 W/m/K
403.07 K, 447 kPa, Gas, transient hot wire	0.01962 W/m/K
403.08 K, 446 kPa, Gas, transient hot wire	0.01959 W/m/K
403.1 K, 744 kPa, Gas, transient hot wire	0.02004 W/m/K
403.1 K, 745 kPa, Gas, transient hot wire	0.02014 W/m/K
403.12 K, 306 kPa, Gas, transient hot wire	0.01974 W/m/K
403.12 K, 307 kPa, Gas, transient hot wire	0.01974 W/m/K
403.2 K, 605 kPa, Gas, transient hot wire	0.01971 W/m/K
403.21 K, 606 kPa, Gas, transient hot wire	0.01981 W/m/K
403.25 K, 836 kPa, Gas, transient hot wire	0.02071 W/m/K
403.25 K, 837 kPa, Gas, transient hot wire	0.02072 W/m/K
403.28 K, 445 kPa, Gas, transient hot wire	0.01961 W/m/K
403.3 K, 445 kPa, Gas, transient hot wire	0.01958 W/m/K
403.33 K, 744 kPa, Gas, transient hot wire	0.02022 W/m/K
403.34 K, 306 kPa, Gas, transient hot wire	0.01976 W/m/K
403.34 K, 743 kPa, Gas, transient hot wire	0.02024 W/m/K
403.35 K, 306 kPa, Gas, transient hot wire	0.01972 W/m/K
403.41 K, 605 kPa, Gas, transient hot wire	0.01984 W/m/K
403.42 K, 604 kPa, Gas, transient hot wire	0.01984 W/m/K
403.51 K, 444 kPa, Gas, transient hot wire	0.01967 W/m/K
403.53 K, 742 kPa, Gas, transient hot wire	0.02037 W/m/K and 0.02041 W/m/K
403.54 K, 443 kPa, Gas, transient hot wire	0.01965 W/m/K
403.57 K, 305 kPa, Gas, transient hot wire	0.01974 W/m/K and 0.01978 W/m/K
403.63 K, 603 kPa, Gas, transient hot wire	0.01991 W/m/K
403.64 K, 602 kPa, Gas, transient hot wire	0.01991 W/m/K
403.75 K, 442 kPa, Gas, transient hot wire	0.01972 W/m/K
403.76 K, 442 kPa, Gas, transient hot wire	0.01971 W/m/K
403.81 K, 305 kPa, Gas, transient hot wire	0.01987 W/m/K and 0.01988 W/m/K
416.35 K, 1171 kPa, Liquid, transient hot wire	0.03902 W/m/K and 0.03885 W/m/K
416.51 K, 1171 kPa, Liquid, transient hot wire	0.03892 W/m/K and 0.03904 W/m/K
416.67 K, 1170 kPa, Liquid, transient hot wire	0.03901 W/m/K
416.68 K, 1170 kPa, Liquid, transient hot wire	0.0389 W/m/K
416.69 K, 596 kPa, Gas, hot wire	0.0223 W/m/K
416.7 K, 595 kPa, Gas, hot wire	0.02228 W/m/K
416.78 K, 2205 kPa, Liquid, transient hot wire	0.04062 W/m/K
416.79 K, 2206 kPa, Liquid, transient hot wire	0.04049 W/m/K
416.8 K, 24840 kPa, Liquid, transient hot wire	0.05568 W/m/K
416.81 K, 24844 kPa, Liquid, transient hot wire	0.05562 W/m/K
416.81 K, 50957 kPa, Liquid, transient hot wire	0.06585 W/m/K
416.82 K, 50950 kPa, Liquid, transient hot wire	0.06577 W/m/K
416.86 K, 1170 kPa, Liquid, transient hot wire	0.03904 W/m/K
416.87 K, 1131 kPa, Gas, transient hot wire	0.02258 W/m/K
416.87 K, 1170 kPa, Liquid, transient hot wire	0.03905 W/m/K
416.88 K, 16295 kPa, Liquid, transient hot wire	0.0514 W/m/K
416.89 K, 590 kPa, Gas, hot wire	0.02234 W/m/K
